Laboratory results reported in publication PMC3828334, “Tumor Cell Death Mediated by Peptides That Recognize Branched Intermediates of DNA Replication and Repair” (PLoS ONE, 2013).
Where “and” joins values, the source holds several entries; their conditions need not be identical. Identical values can stand only once. Positions of bridges follow the written chain, without caps; N, C: chain ends. Non-standard residues stand in square brackets, D forms with d. Residues, ends and D or L forms follow the SMILES beside them. Chains are numbered I, II in the order given.

Experiments:
[1] = test system: Htog1 cells (variant of HeLa cells); experiment: Cytochrome C release / TMRE assay for apoptosis; assay type: cell-based; conditions: 24 h, confocal microscopy
Protocol: 200,000 Htog1 cells (variant of HeLa cells, a generous gift from Drs. Terrence Frey and Maria Guo) were seeded on cover slips mounted on 35 mm microwell petri dishes (Mattek Corp, Ashland, MA) with DMEM supplemented with 10% FBS and allowed to attach overnight at 37°C in 5% CO2. The media was replaced with 1 ml of the appropriate treatment and incubated for 24 h. After 23 h of treatment, 50 µM tetramethyl rhodamine ethyl ester perchlorate (TMRE) solution was added to each well (final concentration 50 nM) and incubated for the remaining hour. Cytochrome C release and loss of TMRE staining were determined in Z-series images acquired using a Leica TCS SP2 inverted confocal microscope. GFP was excited using 488 nm wavelength from an Ar/Kr laser attenuated to 33%, and the emitted fluorescence detected at 497–553 nm. TMRE fluorescence was excited using a 543 nm wavelength from an Ar/Kr laser attenuated to 35%, and the emitted fluorescence detected at 555–620 nm. Each cell was analyzed for release of GFP (GFP channel), loss of mitochondrial membrane potential (TMRE loss) or morphological abnormalities associated with apoptosis, and the % cells positive for each hallmark was calculated for the various treatments.

[2] = test system: U2OS cell lines vs IMR 90 cells; conditions: cited from earlier work
Source text: A major challenge of cancer treatment is drug delivery. The intact cell membrane protects the cellular components from its surroundings, restricting hydrophilic molecules from entering the cell and allowing only small molecules to cross the membrane. The presence of hydrophobic and basic amino acid residues in peptide wrwycr probably helps it cross the cancer cell membrane more efficiently than normal cells, similar to the cell penetrating peptides (CPPs).

γH2AX in PC3 cells = experiment: γH2AX foci by microscopy and flow cytometry; assay type: cell-based; conditions: PC3, 200 µM, flow cytometry
Protocol: DAPI (5 μg/ml) was used to stain the nucleus. The stained cells on the coverslips were mounted on the glass slides and observed with a Zeiss inverted microscope with AxioVision 4.8 software and using the 100× magnification. Foci of 53BP1 were counted manually and the average number of foci per cell was calculated. […] They were subsequently treated with either 50-200 μM […] or 50-100 μM […] or 0.5-1 μM doxorubicin or combination treatment for 0, 12, 24, 36 and 48 h. […] Samples were analyzed using a Becton Dickinson FACS Canto flow cytometer at a forward scatter voltage of 25 V, side-scatter voltage of 400 V, and FITC channel at a voltage of 400 V.

PC3 cells = experiment: Live/Dead assay by flow cytometry, PC3; assay type: cell-based; conditions: ± standard error, at least 4 replicates
Protocol: PC3 or HeLa cells were seeded at 400,000 or 500,000 cells per well respectively in 6-well tissue culture plates (BD Falcon) and allowed to attach overnight at 37°C with 5% CO2. The cells were incubated with different concentrations of d-wrwycr for 24 or 48 h respectively before the cells were lifted off from the plate. Cell pellets were resuspended in 200 µl of dye […] protocol (Live/dead cytotoxicity kit for mammalian cells, Invitrogen and reference). Data were collected in BDFacs Canto and analyzed using FACSDiva software (Becton-Dickenson).

Chk2 in PC3 cells = experiment: Phospho-Chk2 by flow cytometry; assay type: cell-based; conditions: PC3, 50 µM wrwycr on its own, 48 h
Protocol: They were subsequently treated with either 50-200 μM […] or 50-100 μM […] or 0.5-1 μM doxorubicin or combination treatment for 0, 12, 24, 36 and 48 h. […] Samples were analyzed using a Becton Dickinson FACS Canto flow cytometer at a forward scatter voltage of 25 V, side-scatter voltage of 400 V, and FITC channel at a voltage of 400 V.

PPC-1 cells = experiment: MTT assay of cell viability, PPC-1; assay type: cell-based; conditions: 48 h
HeLa cells = experiment: TUNEL assay, HeLa, with z-VAD-fmk or z-FA-fmk; assay type: cell-based; conditions: 24 h
Protocol: 600,000 PC3 cells or 500,000 HeLa cells were plated in 60-mm dishes or 6-well plates respectively to allow them to attach overnight at 37°C with 5% CO2. PC3 cells were subsequently treated with appropriate treatments for 24, 36 and 48 h while HeLa cells were treated with 1 µl of either the caspase inhibitor z-VAD-fmk or z-FA-fmk (both from Biovision), containing appropriate treatments, for 24 h. The cells were fixed with 4% paraformaldehyde for 30 min and permeabilized with 0.1% Triton X-100 in 0.1% sodium citrate buffer for 3 mins. Labeled dUTP were added along with the terminal deoxynucleotidyl transferase dUTP nick end labeling (TUNEL) (TUNEL kit from Roche) as described in the kit. Samples were analyzed using a Becton Dickinson FACS Canto flow cytometer as specified above.

DuPro-1 cells = assay type: cell-based; conditions: MTT, DuPro-1 cells, 48 h
[3] = test system: GRP78 promoter in HeLa cells; experiment: Luciferase reporter assay for ER stress; assay type: cell-based; conditions: 24 h
Protocol: HeLa cells were transfected with either either 15 µg of plasmid DJT208, carrying the GRP78 promoter (pGRP78) driving the ER-stress response elements ERSE 1, ERSE 2 and ERSE 3 upstream of the luciferase gene, or 15 µg of the plasmid GL2P, carrying the luciferase gene driven by the SV40 promoter (pSV40). All cells were also co-transfected with 10 µg of the PB1 plasmid, carrying the β-galactosidase reporter transcribed by the SV40 promoter, as a transfection control. [The plasmids were generous gifts from Dr. Peter Belmont from Christopher Glembotski's Lab in SDSU]. After 24 h the cells were treated with increasing concentrations of wrwycr (100, 150 and 200 µM) for 24 h and the luciferase activity was measured using an OptocompII Luminometer. Tunicamycin (TM), a known inducer of ER stress, was used as a positive control for the experiment ER stress was calculated as the fold increase of luciferase gene expression from the GRP78 promoter over that from the SV40 promoter of pGL2P for the different concentrations of the peptide over DMSO, which is the solvent for the peptide, or over the media in the case of TM.

## N=C(N)NCCC[C@@H](NC(=O)[C@@H](CSSC[C@@H](NC(=O)[C@@H](Cc1ccc(O)cc1)NC(=O)[C@@H](Cc1c[nH]c2ccccc12)NC(=O)[C@@H](CCCNC(=N)N)NC(=O)[C@H](N)Cc1c[nH]c2ccccc12)C(=O)N[C@H](CCCNC(=N)N)C(N)=O)NC(=O)[C@@H](Cc1ccc(O)cc1)NC(=O)[C@@H](Cc1c[nH]c2ccccc12)NC(=O)[C@@H](CCCNC(=N)N)NC(=O)[C@H](N)Cc1c[nH]c2ccccc12)C(N)=O [wrwycr, Trp-Arg-Trp-Tyr-Cys-Arg] (I: H-[dW][dR][dW][dY][dC][dR]-NH2 / II: H-[dW][dR][dW][dY][dC][dR]-NH2; disulfide I:5-II:5; N-terminus assumed)
[1]
  cytochrome C release or loss of TMRE: little or no cytochrome C release or loss of TMRE
[2]
  uptake in U2OS cell lines relative to non-tumor derived IMR 90 cells: 3 ×
γH2AX in PC3 cells; after 36–48 h
  γH2AX positive cells: 20–35%
γH2AX in PC3 cells; between 12–24 h
  γH2AX positive cells: 2–5%
PC3 cells; 100 µM wrwycr, calcein AM
  PC3 population %Live: 64.9±2.5%
PC3 cells; 100 µM wrwycr, propidium iodide permeable
  PC3 population % Dead: 33.4±2.0%
PC3 cells; 150 µM wrwycr
  PC3 population % Dead: 33.8±0.6%
  PC3 population %Live: 64.4±0.9%
PC3 cells; 200 µM wrwycr
  PC3 population % Dead: 40.6±4.8%
  PC3 population %Live: 58% and 57.7±4.7%
Chk2 in PC3 cells
  cells with activated Chk2: About 5%
PPC-1 cells
  IC50: the same IC50 as the PC3 cell line
HeLa cells; 100 µM wrwycr
  TUNEL-positive cells: 13%
HeLa cells
  TUNEL positive cells with caspase inhibitor z-VAD-fmk versus mock inhibitor z-FA-fmk: No significant difference
DuPro-1 cells
  IC50: the same IC50 as the PC3 cell line
[3]; 100 µM, ER stress as fold increase GRP78 promoter over SV40 promoter
  pGRP78/pSV40: 0.84±0.1
[3]; 150 µM
  pGRP78/pSV40: 1.02±0.44
[3]; 200 µM
  pGRP78/pSV40: 0.87±0.06
[3]; 100–200 µM
  induction of expression of the GRP78 promoter: did not induce expression of the GRP78 promoter
